Reference: paper PMC2713172 (Biochemistry, 2008)
Like-named read-outs stand apart in the source and are kept apart here.

What was measured:
CYP2C9 F476L mutant [1] = biological target: T1, CYP2C9 F476L mutant (Homo sapiens, UniProt P11712, F476L); details: F476L
CYP2C9 F476W mutant [2] = biological target: T2, CYP2C9 F476W mutant (Homo sapiens, UniProt P11712, F476W); experiment: in vitro; details: pH 7.4
CYP2C9 F100L mutant [3] = biological target: T3, CYP2C9 F100L mutant (Homo sapiens, UniProt P11712, F100L); experiment: in vitro; details: pH 7.4
CYP2C9 F114W mutant [4] = biological target: T4, CYP2C9 F114W mutant (Homo sapiens, UniProt P11712, F114W); experiment: biochemical
wild-type CYP2C9 [5] = biological target: T5, wild-type CYP2C9 (Homo sapiens, UniProt P11712)
[6] = biological target: CYP2C9 F114L/F476L double mutant (Homo sapiens, UniProt P11712, F114L/F476L); details: F114L/F476L
wild-type CYP2C9 [7] = biological target: T5, wild-type CYP2C9; remark: listed apart in the source
CYP2C9 F114W mutant [8] = biological target: T4, CYP2C9 F114W mutant; experiment: in vitro; details: pH 7.4
CYP2C9 F100L mutant [9] = biological target: T3, CYP2C9 F100L mutant; experiment: biochemical
CYP2C9 F476L mutant [10] = biological target: T1, CYP2C9 F476L mutant; experiment: biochemical
[11] = biological target: T6, CYP2C9 F114W/F476W double mutant (Homo sapiens, UniProt P11712, F114W/F476W)
CYP2C9 F476W mutant [12] = biological target: T2, CYP2C9 F476W mutant
CYP2C9 F114W mutant [13] = biological target: T4, CYP2C9 F114W mutant; details: F114W
CYP2C9 F114L mutant [14] = biological target: T7, CYP2C9 F114L mutant (Homo sapiens, UniProt P11712, F114L)
wild-type CYP2C9 [15] = biological target: T5, wild-type CYP2C9; remark: listed apart in the source
[16] = biological target: T6, CYP2C9 F114W/F476W double mutant; experiment: in vitro; details: pH 7.4
[17] = biological target: T6, CYP2C9 F114W/F476W double mutant; experiment: biochemical
CYP2C9 F476W mutant [18] = biological target: T2, CYP2C9 F476W mutant; remark: listed apart in the source
CYP2C9 F100L mutant [19] = biological target: T3, CYP2C9 F100L mutant
wild-type CYP2C9 [20] = biological target: T5, wild-type CYP2C9; details: WT; for T1, 2C9 + CO: dithionite/CO
wild-type CYP2C9 [21] = biological target: T5, wild-type CYP2C9; experiment: biochemical
CYP2C9 F114L mutant [22] = biological target: T7, CYP2C9 F114L mutant; details: F114L
[23] = biological target: T6, CYP2C9 F114W/F476W double mutant; details: F114W/F476W
CYP2C9 F114L mutant [24] = biological target: T7, CYP2C9 F114L mutant; experiment: biochemical

percent of wild-type ΔA/K (CYP2C9 F476L mutant [1]): 23% | ΔA/K (CYP2C9 F476L mutant [1]): 1.2 μM^−1 × 10^−3 | ΔAmax (maximum observed difference 390–420 nm) (CYP2C9 F476L mutant [1]): 11 ± 0.4 ×10^−3 | Km at 20 min (CYP2C9 F476W mutant [2]): 105 ± 3.9 µM | Km at 20 min (CYP2C9 F100L mutant [3]): 34.8 ± 7 µM | Kd (CYP2C9 F114W mutant [4]): 4 ± 0.2 µM | H2O2/O2 (wild-type CYP2C9 [5]; WT): 0.43 | H2O/Metabolite (wild-type CYP2C9 [5]; WT): 0.7 | Metabolite/NADPH (wild-type CYP2C9 [5]; WT, coupling efficiency): 0.21 | coupling of hydroxylation to NADPH consumption (wild-type CYP2C9 [5]; wild-type CYP2C9): ~ 20% | percent of wild-type ΔA/K [6]: 8% | ΔA/K [6]: 0.4 μM^−1 × 10^−3 | ΔAmax (maximum observed difference 390–420 nm) [6]: 4.4 ± 0.2 ×10^−3 | fraction high spin (wild-type CYP2C9 [7]; WT + ligand, used for the NMR distance calculation): 0.16 | percent of wild-type ΔA/K (wild-type CYP2C9 [7]; Wild-type): 100% | ΔA/K (wild-type CYP2C9 [7]; Wild-type): 5.3 μM^−1 × 10^−3 | ΔAmax (maximum observed difference 390–420 nm) (wild-type CYP2C9 [7]; Wild-type): 18 ± 0.5 ×10^−3 | Km at 20 min (CYP2C9 F114W mutant [8]): 19.5 ± 3.2 µM | Kd (CYP2C9 F100L mutant [9]): 2.2 ± 0.2 µM | Kd (CYP2C9 F476L mutant [10]): 9.1 ± 1 µM | percent of wild-type kcat/Km [11]: 3% | kcat ([11]; substrate hydroxylation): 0.0517 ± 0.0013 s⁻¹ | decrease of efficiency of turnover relative to wild-type (CYP2C9 F476W mutant [12]): 20 fold | percent of wild-type kcat/Km (CYP2C9 F476W mutant [12]): 5% | kcat (CYP2C9 F476W mutant [12]; substrate hydroxylation): 0.0267 ± 0.0033 s⁻¹ | percent of wild-type ΔA/K (CYP2C9 F114W mutant [13]): 160% | ΔA/K (CYP2C9 F114W mutant [13]): 8.5 μM^−1 × 10^−3 | ΔAmax (maximum observed difference 390–420 nm) (CYP2C9 F114W mutant [13]): 34 ± 0.4 ×10^−3 | percent of wild-type kcat/Km (CYP2C9 F114L mutant [14]): 28% | percent of wild-type kcat/Km (wild-type CYP2C9 [15]; WT): 100% | kcat (wild-type CYP2C9 [15]; WT, substrate hydroxylation): 0.15 ± 0.0067 s⁻¹ | Km at 20 min (wild-type CYP2C9 [15]; human, pH 7.4): 22.9 ± 3.7 µM | Km at 20 min [16]: 237 ± 11.8 µM | Kd [17]: 22.3 ± 4.1 µM | percent of wild-type ΔA/K (CYP2C9 F476W mutant [18]; F476W): 5% | ΔA/K (CYP2C9 F476W mutant [18]; F476W): 0.3 μM^−1 × 10^−3 | fraction high spin (CYP2C9 F476W mutant [18]; F476W + ligand, used for the NMR distance calculation): 0.06 | percent of wild-type kcat/Km (CYP2C9 F100L mutant [19]): 100% | kcat (CYP2C9 F100L mutant [19]; substrate hydroxylation): 0.205 ± 0.012 s⁻¹ | T1, 2C9 (wild-type CYP2C9 [20]; proton H2): 2.44 (0.10) seconds | r, distance of proton from the heme iron (wild-type CYP2C9 [20]; proton H2): 5.95 (0.11) angstroms | T1, 2C9 + CO (wild-type CYP2C9 [20]; proton H2): 2.79 (0.14) seconds | T1, 2C9 (wild-type CYP2C9 [20]; proton H4′): 3.44 (0.26) seconds | r, distance of proton from the heme iron (wild-type CYP2C9 [20]; proton H4′): 6.11 (0.19) angstroms | T1, 2C9 + CO (wild-type CYP2C9 [20]; proton H4′): 4.25 (0.44) seconds | T1, 2C9 (wild-type CYP2C9 [20]; proton H5): 2.17 (0.07) seconds | r, distance of proton from the heme iron (wild-type CYP2C9 [20]; proton H5): 6.27 (0.16) angstroms | T1, 2C9 + CO (wild-type CYP2C9 [20]; proton H5): 2.26 (0.10) seconds | T1, 2C9 (wild-type CYP2C9 [20]; proton H6): 1.79 (0.05) seconds | r, distance of proton from the heme iron (wild-type CYP2C9 [20]; proton H6): 7.30 (0.19) angstroms | T1, 2C9 + CO (wild-type CYP2C9 [20]; proton H6): 2.04 (0.10) seconds | T1, 2C9 (wild-type CYP2C9 [20]; protons CH3): 0.68 (0.01) seconds | r, distance of proton from the heme iron (wild-type CYP2C9 [20]; protons CH3): 7.82 (0.09) angstroms | T1, 2C9 + CO (wild-type CYP2C9 [20]; protons CH3): 0.68 (0.01) seconds | T1, 2C9 (wild-type CYP2C9 [20]; protons H2′/6′): 2.38 (0.07) seconds | r, distance of proton from the heme iron (wild-type CYP2C9 [20]; protons H2′/6′): 6.02 (0.37) angstroms | T1, 2C9 + CO (wild-type CYP2C9 [20]; protons H2′/6′): 2.77 (0.07) seconds | T1, 2C9 (wild-type CYP2C9 [20]; protons H3′/5′): 2.42 (0.08) seconds | r, distance of proton from the heme iron (wild-type CYP2C9 [20]; protons H3′/5′): 5.82 (0.15) angstroms | T1, 2C9 + CO (wild-type CYP2C9 [20]; protons H3′/5′): 2.70 (0.11) seconds | Kd (wild-type CYP2C9 [21]): 3.4 ± 0.4 µM | percent of wild-type ΔA/K (CYP2C9 F114L mutant [22]): 46% | ΔA/K (CYP2C9 F114L mutant [22]): 2.4 μM^−1 × 10^−3 | ΔAmax (maximum observed difference 390–420 nm) (CYP2C9 F114L mutant [22]): 10 ± 0.4 ×10^−3 | percent of wild-type ΔA/K [23]: 6% | ΔA/K [23]: 0.3 μM^−1 × 10^−3 | ΔAmax (maximum observed difference 390–420 nm) [23]: 7.3 ± 0.4 ×10^−3 | Kd (CYP2C9 F114L mutant [24]): 4.1 ± 0.6 µM
Compound: C[C@H](C(=O)O)c1ccc(-c2ccccc2)c(F)c1 [(S)-flurbiprofen]
